These are literature values, as cited in patent US8673587B2, “Methods for identifying allosteric and other novel acyl-coenzyme A:cholesterol acyltransferase inhibitors” (Trustees of Dartmouth College, priority 2010, dated 2014).

The test system of data set [1] is lysohpospholipid acyltransferase (LPAT). The following applies: cited from earlier work.
Data set [2] concerns amyloid precursor protein (APP). Conditions: animal models for AD; cited from earlier work.
The conditions of data set [3]: fed to animals; cited from earlier work.

Take `CCCCCCCCCCC(C)(C)C(=O)Nc1c(OC)cc(OC)cc1OC` [CI976]: in data set [1], the “inhibition of LPAT” value is listed as “has been shown to inhibit”.
As for `CC(C)c1cc(C(C)C)c(CC(=O)NS(=O)(=O)Oc2c(C(C)C)cccc2C(C)C)c(C(C)C)c1` [CI1011], the “mature/immature ratio of human APP” value in data set [2] is on record as “decreased”. The VLDL-triglyceride content entry in data set [3] was “reduces the VLDL-triglyceride content”.
